How the values were obtained:
U-251 = test: Cytotoxicity against human U251 cells assessed as decrease in cell proliferation after 72 hrs by SRB assay; assay type: functional, cell-based; details: U-251, 72 h
[1] = Cytotoxicity against human IN1760 cells assessed as decrease in cell proliferation after 72 hrs by SRB assay; assay type: functional, cell-based; details: IN1760, 72 h
[2] = Cytotoxicity against human IN1528 cells assessed as decrease in cell proliferation after 72 hrs by SRB assay; assay type: functional, cell-based; details: IN1528, 72 h
[3] = Cytotoxicity against human IN1472 cells assessed as decrease in cell proliferation after 72 hrs by SRB assay; assay type: functional, cell-based; details: IN1472, 72 h
[4] = Cytotoxicity against human U87 cells assessed as decrease in cell proliferation after 72 hrs by SRB assay; assay type: functional, cell-based, U-87MG ATCC; details: U-87 MG

CC(=O)n1cc(CO)c2ccccc21
EC50 (U-251): 1760 µM | EC50 [1]: > 10000 µM | EC50 [2]: 5820 µM

CC(=O)n1c(-c2ccccc2)c(CO)c2ccccc21
EC50 (U-251): 600 µM | EC50 [1]: > 10000 µM | EC50 [2]: > 10000 µM

Cc1ccc(S(=O)(=O)n2cc(CO)c3ccccc32)cc1
EC50 (U-251): 140 µM | EC50 [1]: 650 µM | EC50 [2]: 440 µM

OCc1csc2ccccc12
EC50 (U-251): 1240 µM | EC50 [1]: 1080 µM | EC50 [2]: 3990 µM

c1ccc(-c2[nH]c3ccccc3c2Cc2c(-c3ccccc3)[nH]c3ccccc23)cc1
EC50 (U-251): 50 µM | EC50 [1]: 50 µM | EC50 [2]: 270 µM

OCCc1c(-c2ccccc2)[nH]c2ccccc12
EC50 [3]: 350 µM | EC50 (U-251): 250 µM | EC50 [4]: 110 µM | EC50 [1]: 330 µM | EC50 [2]: 4 µM

OCc1c(-c2ccccc2)[nH]c2ccccc12 [(2-PHENYL-1H-INDOL-3-YL)METHANOL]
EC50 [3]: 480 µM | EC50 (U-251): 130 µM | EC50 [4]: 30 µM | EC50 [1]: 1430 µM | EC50 [2]: 10 µM

c1ccc2c(Cc3c[nH]c4ccccc34)c[nH]c2c1 [ARUNDINE]
EC50 (U-251): 280 µM | EC50 [1]: 230 µM | EC50 [2]: 440 µM

OCc1c[nH]c2ccccc12 [INDOLE-3-CARBINOL]
EC50 [3]: 950 µM | EC50 (U-251): 390 µM | EC50 [4]: 290 µM | EC50 [1]: 1580 µM | EC50 [2]: 119 µM

OCCc1c[nH]c2ccccc12 [TRYPTOPHOL]
EC50 [3]: 1950 µM | EC50 (U-251): 1220 µM | EC50 [4]: 580 µM | EC50 [1]: 4570 µM | EC50 [2]: 1740 µM

From ChEMBL document CHEMBL4004876, “Preliminary SAR on indole-3-carbinol and related fragments reveals a novel anticancer lead compound against resistant glioblastoma cells” (Bioorg Med Chem Lett, 2017)
